We go through eight compounds from US8906929B2, “Inhibitors of human immunodeficiency virus replication” (priority 2012, dated 2014).

Molecules are shown by their SMILES.

This assay relates to recombinant NL-Rluc virus. Kind of assay: Inhibition of HIV replication (NL-RLuc virus in MT-2 cells, luciferase readout). In kind it is cell-based. As to conditions: Human immunodeficiency virus 1, MT2, 120 h, 5 days of incubation, 10% FBS.
For `Cc1nc2cc3nn2c(c1[C@H](OC(C)(C)C)C(=O)O)N1CCC(C)(CC1)OC/C=C\COc1cc(F)ccc1-c1cccc-3c1` [Example 47, (2S)-2-(tert-Butoxy)-2-[(23Z)-18-fluoro-4,2,7-dimethyl-21,26-dioxa-1,5,7,8-tetraazahexacyclo[25.2.2.1^6,^9.1^10,^14.0^2,^7.0^15,^20]tritriaconta-2,4,6(33),8,10(32),11,13,15(20),16,18,23-undecaen-3-yl]acetic acid], the EC50 amounted to 14 nM.

In the case of `Cc1nc2cc3nn2c(c1[C@H](OC(C)(C)C)C(=O)O)N1CCC(C)(CC1)OC/C=C/COc1cc(F)ccc1-c1cccc-3c1` [Example 48, (2S)-2-(tert-Butoxy)-2-[(23E)-18-fluoro-4,2,7-dimethyl-21,26-dioxa-1,5,7,8-tetraazahexacyclo[25.2.2.1^6,^9.1^10,^14.0^2,^7.0^15,^20]tritriaconta-2,4,6(33),8,10(32),11,13,15(20),16,18,23-undecaen-3-yl]acetic acid], the EC50 is 11 nM.

For the compound `Cc1nc2cc3nn2c(c1[C@H](OC(C)(C)C)C(=O)O)N1CCC(C)(CC1)OCCCCOc1cc(F)ccc1-c1cccc-3c1` [Example 49, (2S)-2-(tert-Butoxy)-2-{18-fluoro-4,27-dimethyl-21,26-dioxa-1,5,7,8-tetraazahexacyclo[25.2.2.1^6,^9.1^10,^14.0^2,^7.0^15,^20]tritriaconta-2,4,6(33),8,10(32),11,13,15(20),16,18-decaen-3-yl}acetic acid], the EC50 amounted to 9 nM.

Consider `Cc1nc2cc3nn2c(c1[C@H](OC(C)(C)C)C(=O)O)N1CCC(C)(CC/C=C/CCc2ccncc2-c2cccc-3c2)CC1` [Example 50, (2S)-2-(tert-Butoxy)-2-[(23E)-4,27-dimethyl-1,5,7,8,17-pentaazahexacyclo[25.2.2.1^6,^9.1^10,^14.0^2,^7.0^15,^20]tritriaconta-2,4,6(33),8,10(32),11,13,15(20),16,18,23-undecaen-3-yl]acetic acid], for which the EC50 is 6 nM.

As to `Cc1nc2cc3nn2c(c1[C@H](OC(C)(C)C)C(=O)O)N1CCC(C)(CC/C=C\CCc2ccncc2-c2cccc-3c2)CC1` [Example 51, (2S)-2-(tert-Butoxy)-2-[(23Z)-4,27-dimethyl-1,5,7,8,17-pentaazahexacyclo[25.2.2.1^6,^9.1^10,^14.0^2,^7.0^15,^20]tritriaconta-2,4,6(33),8,10(32),11,13,15(20),16,18,23-undecaen-3-yl]acetic acid], the EC50 stood at 6 nM.

Turning to `Cc1nc2cc3nn2c(c1[C@H](OC(C)(C)C)C(=O)O)N1CCC(C)(CCCCCCc2ccncc2-c2cccc-3c2)CC1` [Example 52, (2S)-2-(tert-Butoxy)-2-{4,27-dimethyl-1,5,7,8,17-pentaazahexacyclo[25.2.2.1^6,^9.1^10,^14.0^2,^7.0^15,^20]tritriaconta-2,4,6(33),8,10(32),11,13,15(20),16,18-decaen-3-yl}acetic acid], the EC50 was found to be 5 nM.

Consider `Cc1ccc2c(c1)-c1cccc(c1)-c1cc3nc(C)c([C@H](OC(C)(C)C)C(=O)O)c(n3n1)N1CCC(C)(CC1)OC/C=C/C[C@H](C)O2` [Example 53, (2S)-2-(tert-Butoxy)-2-[(22S,^24E)-4,17,22,28-tetramethyl-21,27-dioxa-1,5,7,8-tetraazahexacyclo[26.2.2.1^6,^9.1^10,^14.0^2,^7.0^15,^20]tetratriaconta-2,4,6(34),8,10(33),11,13,15(20),16,18,24-undecaen-3-yl]acetic acid], for which the EC50 stood at 10 nM.

As to `Cc1ccc2c(c1)-c1cccc(c1)-c1cc3nc(C)c([C@H](OC(C)(C)C)C(=O)O)c(n3n1)N1CCC(C)(CC1)OC/C=C\C[C@H](C)O2` [Example 54, (2S)-2-(tert-Butoxy)-2-[(22S,24Z)-4,17,22,28-tetramethyl-21,27-dioxa-1,5,7,8-tetraazahexacyclo[26.2.2.1^6,^9.1^10,^14.0^2,^7.0^15,^20]tetratriaconta-2,4,6(34),8,10(33),11,13,15(20),16,18,24-undecaen-3-yl]acetic acid], the EC50 came out at 130 nM.

The term EC50 denotes the concentration that produces a half-maximal response.
